For test [1], the system named is M2 macrophages. The test can be described thus: Flow cytometry of FITC-conjugated melittin on M0, M1 and M2 macrophages. It counts as cell-based, human. To be noted: 50 nM FITC-conjugated melittin, 1 hour; THP-1 derived M0, M1, M2 macrophages. How it is done: To confirm whether the melittin fabricated in Example 1 specifically bound to M2 tumor-associated macrophages (M2 TAMs), a human monocyte cell line THP-1 was differentiated into M0, M1, and M2 macrophages, and treated with FITC-conjugated melittin, and then confirmed by flow cytometry. Specifically, THP-1 cells were treated with 100 nM phorbol 12-myristate 13-acetate (PMA) at 37° C. for 24 hours (M0 macrophages), and the differentiated M0 macrophages were incubated with 100 nM LPS and 20 ng/ml IFN-γ at 37° C. for 72 hours to be differentiated into M1 macrophages (M1), and incubated with 20 ng/ml IL-4 and IL-13 at 37° C. for 72 hours to be differentiated into M2 macrophages (M2). The differentiated cells were treated with 50 nM FITC-conjugated melittin for 1 hour, detected with BD FACS CantoII instruments (BD biosciences, San Jose, CA, USA), and analyzed with FlowJo software (BD biosciences).
(A flow cytometer gives signals particle by particle.)

Test [2] deals with M2 macrophages. Kind of test: CCK-8 cell viability in M2 macrophages (control, ITGB2 knockdown, ITGB2 antibody pretreatment). Type of test: cell-based, human. As to conditions: Melittin-dKLA 1 μM, 24 hours. How it is done:
As a cell model used to confirm whether apoptosis was induced through ITGB2 in M2 macrophages, a cell model in which the expression of ITGB2 was suppressed in M2 macrophages was fabricated using Crispr/cas9. Specifically, cells differentiated into M2 macrophages were cultured in an Opti-MEM medium. The Crispr/cas9 was mixed with Cas9 protein V2 (Thermo Fisher scientific) and gRNA (Genscript; ITGB2; Table 7) of a CRISPRMAX™ Reagent kit (Thermo Fisher scientific) and a Cas9 Plus™ Reagent (Thermo Fisher scientific), and a CRISPRMAX™ Reagent was diluted in the Opti-MEM medium, mixed together, and reacted for 5 to 10 minutes, and then added to cells differentiated into M2 macrophages and cultured at 37° C. for 2 to 3 days. Thereafter, the mRNA expression level of ITGB2 was confirmed.
To confirm whether Melittin-dKLA bound to ITGB2 to induce apoptosis in M2 macrophages, Melittin-dKLA (1 μM) was treated for 24 hours to M2 macrophages in which ITGB2 expression was suppressed by Crispr/cas9 fabricated in Example 7-1 above, and cell viability was analyzed using a CCK-8 assay. Specifically, Melittin-dKLA (1 μM) reacted with ITGB2 knockdown macrophages fabricated in Example 7-1 above for 1 hour. After the reaction, the medium was replaced and cultured at 37° C. for 24 hours. […] Absorbance was measured at 450 nm using a microplate reader (Molecular Devices). […]

For the compound `CC[C@H](C)[C@H](NC(=O)CN)C(=O)NCC(=O)N[C@@H](C)C(=O)N[C@H](C(=O)N[C@@H](CC(C)C)C(=O)N[C@@H](CCCCN)C(=O)N[C@H](C(=O)N[C@@H](CC(C)C)C(=O)N[C@H](C(=O)N[C@H](C(=O)NCC(=O)N[C@@H](CC(C)C)C(=O)N1CCC[C@H]1C(=O)N[C@@H](C)C(=O)N[C@@H](CC(C)C)C(=O)N[C@H](C(=O)N[C@@H](CO)C(=O)N[C@@H](Cc1c[nH]c2ccccc12)C(=O)N[C@H](C(=O)N[C@@H](CCCCN)C(=O)N[C@@H](CCCNC(=N)N)C(=O)N[C@@H](CCCCN)C(=O)N[C@@H](CCCNC(=N)N)C(=O)N[C@@H](CCC(N)=O)C(=O)N[C@@H](CCC(N)=O)C(N)=O)[C@@H](C)CC)[C@@H](C)CC)[C@@H](C)O)[C@@H](C)O)C(C)C)C(C)C` [melittin, Melittin], the FITC-positive cells result in the test with M2 macrophages [1] is listed as “significantly increased in M2 macrophages”.

For “Peptide with linker and drug dKLA attached to melittin, SEQ ID NO: 5, GIGAVLKVLTTGLPALISWIKRKRQQ-GGGGS-d[KLAKLAKKLAKLAK] [Melittin-dKLA]”, the cell viability entry was “decrease in cell viability by Melittin-dKLA was suppressed” in the test on M2 macrophages [2] (M2 macrophages in which ITGB2 was knocked down (Crispr/cas9)) and “significantly reduced” in the test on M2 macrophages [2] (control M2 macrophages).

The values above are taken from patent US20260000782A1, “ITGB2-MEDIATED DRUG DELIVERY SYSTEM” (TWINPIG BIOLAB INC., priority 2022, published 2026).
